Experimental data reported in patent publication US20100130408A1, “USE OF MODIFIED CYCLOSPORINS” (priority 2006, published 2010).

How the values were obtained:
[1] = tested on: HSCs; assay: BrdU incorporation (cell proliferation ELISA); type: cell-based, rat
Method: (§1) A. In vitro Cell culture: HSCs are isolated from the liver of male Wistar rats by sequential in situ perfusion with collagenase and digestion with pronase, followed by centrifugation in a double-layered (17%/11.5%) metrizamide solution (Sigma. Chemical, St. Louis, Mo.), as described in Kato, et al, J. Hepatol (1999) 31:91-99. HSCs are cultured in Dulbecco's modified Eagle's medium (DMEM) with 10% fetal calf serum (FCS). Experiments are performed on cells between the third and fourth serial passages. To measure […] matrix metalloproteinase (MMP-1) and tissue inhibitor of matrix metalloproteinase (TIMP-1), TWNT-4 cells which is a human cell line derived from HSCs as produced according to Shibata, et al, Cell Transplant (2003) 12:499-507 is used for evaluating the effects of Fasudil on MMP-1 and TIMP-1. TWNT-4 cells are cultured in DMEM with 10% FCS as reported previously (Id). NIM811 (Novartis Pharma AG, Basel, Switzerland) is dissolved in DMEM and added to cultures. […]
Analysis of BrdU incorporation: HSC incorporation of BrdU is measured using a cell proliferation ELISA (Roche Diagnostics GmbH, Mannheim, Germany) as described in Higashi, et al, J. Lab Clin Med (2005) 145(6):316-322. […] BrdU incorporation is estimated by measuring the […].

[2] = tested on: TWNT-4 cells; assay: gene expression using real time RT-PCR; type: cell-based, human; settings: 0.5 μM
Method: Analysis of gene expression using real time RT-PCR: Total RNA is prepared from TWNT-4 cells with Trizol reagent (Invitrogen, Carlsbad, Calif., USA), which are maintained in either the presence or absence of NIM811 in 10% FCS for 24 h. cDNA is synthesized from […] RNA with GeneAmp™ RNA PCR (Applied Biosystems, Branchburg, N.J., USA) using random hexamers. Real-time PCR is performed using LightCycler-FastStart DNA Master SYBR Green 1 (Roche, Tokyo, Japan) as described in Nakamuta, et al, Int J. Mol Med (2005) 16(4):631-635. A reaction mixture (20 μl) is used containing LightCycler-FastStart DNA Master SYBR Green 1, 4 mM MgCl2, 0.5 μM of the upstream and downstream PCR primers, and […] of the first strand cDNA as a template. To control for variations in the reactions, all PCRs are normalized against glyceraldehyde-3-phosphate dehydrogenase (GAPDH) expression. The primers which may be used are as follows: 5′-[…]-3′ (forward primer) (SEQ ID NO. 1) and 5′-[…]-3′ (reverse primer)(SEQ ID NO. 2) for human type I collagen a1 chain (GenBank™ accession number NM-000088) (21); 5′-[…]-3′ (forward primer)(SEQ ID NO. 3) and 5′-[…]-3′ (reverse primer) for human a-SMA (GenBank™ accession number […]); 5′-[…]-3′ (forward primer) and 5′-[…]-3′ (reverse primer) for MMP-1 (GenBank™ accession number NM002421); 5′-[…]-3′ (forward primer) and 5′-[…]-3′ (reverse primer)(SEQ ID NO. 4) for TIMP-1 (GenBank™ accession number NM003254); 5′-[…]-3′ (forward primer)(SEQ ID NO. 5) and 5′-[…]-3′ (reverse primer)(SEQ ID NO. 6) for Smad7 (Quan, et al, J Biol Chem (2005) 80:8079-8085); 5′-[…]-3′ (forward primer)(SEQ ID NO. 7) and 5′-[…]-3′ (reverse primer)(SEQ ID NO. 8) for transforming growth factor □ receptor I (TGFβRI) (Woszcyk et al, Med Sci Monit (2004) 10:C33-C37)).

[3] = tested on: MAPKs Signaling Pathways; assay: Western blot analysis for phospho- and nonphospho-MAPKs; type: cell-based, human
Method: Western blot analysis for phospho- and nonphospho-MAPKs: Western blot analysis is performed as described in Uchimura, et al, Hepatology (2001) 33:91099. HSCs are starved for 24 h, then treated with or without NIM811 for 2 h. Whole cell lysates containing 1×10^7 TWNT-4 cells are prepared in 100 μl SDS-PAGE sample buffer. Protein lysates are subjected to 12% SDS-PAGE, transferred to a polyvinylidene difluoride membrane (Millipore, Bedford, Mass.), and probed with the primary antibody for ERK1/2 MAPK, phospho-ERK1/2 MAPK (Thr202/Tyr204), JNK, phospho-JNK (Thr183/Tyr185), p38 MAPK, or phospho-p38 MAPK (Thr180/Tyr182) (New England Biolabs, Beverly, Mass.). Antibody binding is detected using peroxidase linked anti-rabbit IgG (Amersham Pharmacia Biotech, Piscataway, N.J.) as the secondary antibody. The blots are developed using ECL-plus (Amersham Pharmacia Biotech, Piscataway, N.J.) to visualize the antibodies. The levels of ERK1/2 MAPK, phosphorylated-ERK1/2 MAPK, JNK, phosphorylated-JNK, p38 MAPK, and phosphorylated-p38 MAPK are quantitated by densitometry using an optical scanner system. For comparison, the ratios of phosphorylated ERK1/2, JNK, and p38 MAPK to nonphosphorylated ERK1/2, JNK, and p38 MAPK, respectively, are calculated from the densitometric data.

[4] = tested on: HSCs; assay: Analysis of apoptosis (TUNEL); type: cell-based, rat; settings: 2 μM
Method: as §1
Analysis of Apoptosis: HSCs are maintained in either the presence or absence of NIM811 in serum-free conditions for 24 h. […] Cells are then stained with Hoechst 33342, and analyzed by the TUNEL method using an In Situ Cell Death Detection Kit (Roche) according to the manufacturer's instructions. […] At least 100 cells from three independent experiments and from three different cell preparations are counted for each condition.

[5] = tested on: HCV; settings: Watashi et al., Hepatology (2003); cited from earlier work

SMILES: C/C=C/C[C@@H](C)[C@@H](O)[C@H]1C(=O)N[C@@H](CC)C(=O)N(C)CC(=O)N(C)[C@@H]([C@@H](C)CC)C(=O)N[C@@H](C(C)C)C(=O)N(C)[C@@H](CC(C)C)C(=O)N[C@@H](C)C(=O)N[C@H](C)C(=O)N(C)[C@@H](CC(C)C)C(=O)N(C)[C@@H](CC(C)C)C(=O)N(C)[C@@H](C(C)C)C(=O)N1C [NIM811]
- cell growth of HSCs [1]: suppresses cell growth of HSCs in a concentration-dependent manner
- decrease of new DNA synthesis (BrdU incorporation) ([1]; 2.0 μM): ~30%
- enhancement of expression of Smad7 [2]: ~2 fold
- expression of TIMP-1 (mRNA) [2]: did not change
- increase of expression of MMP-1 (mRNA) [2]: ~2 fold
- reduction of expression of type I collagen (mRNA) [2]: roughly 30%
- suppression of TGFβRI expression [2]: ~50%
- phosphorylation of ERK1/2 [3]: does not suppress ERK1/2
- enhancement of phosphorylation of JNK ([3]; 0.5 μM): ~3.6 fold
- enhancement of phosphorylation of p38 MAPK ([3]; 0.5 μM): ~2.3 fold
- apoptosis [4]: no apoptosis is observed
- replication of HCV in vitro [5]: suppresses replication of HCV replication in vitro
